Data taken from US4419123A, “Herbicidal 4-trifluoromethyl-3'-carbon-substituted-4'-substituted diphenyl ethers” (Rohm and Haas Company, priority 1981, dated 1983).

Legend:
[1] = system: snapbeans; test: Crop tolerance (selective herbicidal activity), snapbeans; type: in vivo; conditions: preemergence applications
Description: (§1) The following test procedure is employed.
(§2) Following the general test procedure of Example 37, diphenyl ethers are evaluated for significant tolerance (as shown by 50% or less kill of the test crop at levels of application which give more than 50% kill of many or all of the weeds of Example 73) towards some or all of the following common agronomic crops (not all compounds tested against all crops): alfalfa, snapbeans, corn, cotton, cucumbers, peanuts, rape, rice, safflower, soybeans, tomatoes, and wheat.

[2] = system: corn; test: Crop tolerance (selective herbicidal activity), corn; type: in vivo
[3] = Postemergence herbicidal activity (% control) against monocot weeds; type: in vivo; conditions: post-emergence, 336 h, average, about two weeks after application, read-out: Herbicidal activity (% control), postemergence, monocots; for activity at 2241.7 g/ha: 2 lb./A.; for activity at 4483.4 g/ha: 4 lb./A.
Source text: (§3) barnyardgrass (Echinochloa crusgalli) crabgrass (Digitaria spp.) nutsedge (Cyperus esculentus)
(§4) At 2 and 4 pounds per acre:
(§5) **Bermudagrass (Cynodon dactylon)
(§6) *downy brome (Bromus tectorum) foxtail (Setaria faberii)
(§7) Johnsongrass (Sorghum halepense) […]
(§8) quackgrass (Agropyron repens)
(§9) *ryegrass (Lolium perenne)
(§10) *wild oats (Avena factua)
(§11) *yellow millet (Panicum miliaceum)
as §1

[4] = system: soybeans; test: Crop tolerance (selective herbicidal activity), soybeans; type: in vivo; conditions: preemergence applications
[5] = Preemergence herbicidal activity (% control) against dicot weeds; conditions: pre-emergence, 336 h; for activity at 2241.7 g/ha: read-out: Herbicidal activity (% control), preemergence, dicots, 2 lb./A., average, about two weeks after application; for activity at 4483.4 g/ha: read-out: Herbicidal activity (% control), preemergence, dicots, 4 lb./A., average, about two weeks after application
[6] = system: wheat; test: Crop tolerance (selective herbicidal activity), wheat; type: in vivo
Description: as §1, §2

[7] = Postemergence herbicidal activity (% control) against dicot weeds; conditions: post-emergence, 336 h; for activity at 2241.7 g/ha: read-out: Herbicidal activity (% control), postemergence, dicots, 2 lb./A., average, about two weeks after application; for activity at 4483.4 g/ha: read-out: Herbicidal activity (% control), postemergence, dicots, 4 lb./A., average, about two weeks after application
[8] = Preemergence herbicidal activity (% control) against monocot weeds; type: in vivo; conditions: pre-emergence, 336 h, average, about two weeks after application, read-out: Herbicidal activity (% control), preemergence, monocots; for activity at 2241.7 g/ha: 2 lb./A.; for activity at 4483.4 g/ha: 4 lb./A.
Source text: as §3, §4, §5, §6, §7, §8, §9, §10, §11, §1

[9] = system: rice; test: Crop tolerance (selective herbicidal activity), rice; type: in vivo
[10] = system: peanuts; test: Crop tolerance (selective herbicidal activity), peanuts; type: in vivo
[11] = system: cotton; test: Crop tolerance (selective herbicidal activity), cotton; type: in vivo; conditions: preemergence applications
Description: as §1, §2

[12] = system: Monocots (barnyardgrass, Bermudagrass, crabgrass, downy brome, foxtail, Johnsongrass, nutsedge, quackgrass, ryegrass, wild oats, yellow millet); test: Postemergence herbicidal activity (% control) against monocot weeds; type: in vivo; conditions: average, about two weeks after application
Source text: as §3, §4, §5, §6, §7, §8, §9, §10, §11, §1

[13] = system: Dicots (bindweed, cocklebur, coffeeweed, curly dock, lambsquarters, morningglory, pigweed, ragweed, smartweed, tomato, velvetleaf, wild carrot, wild mustard); test: Preemergence herbicidal activity (% control) against dicot weeds; conditions: average, about two weeks after application
[14] = system: Dicots (bindweed, cocklebur, coffeeweed, curly dock, lambsquarters, morningglory, pigweed, ragweed, smartweed, tomato, velvetleaf, wild carrot, wild mustard); test: Postemergence herbicidal activity (% control) against dicot weeds; conditions: average, about two weeks after application
[15] = system: Monocots (barnyardgrass, Bermudagrass, crabgrass, downy brome, foxtail, Johnsongrass, nutsedge, quackgrass, ryegrass, wild oats, yellow millet); test: Preemergence herbicidal activity (% control) against monocot weeds; type: in vivo; conditions: average, about two weeks after application
Source text: as §3, §4, §5, §6, §7, §8, §9, §10, §11, §1

[16] = postemergence applications or applications on transplanted rice

| Compound | Tolerance to snapbeans [1] | Tolerance to corn ([2]; postemergence applications) | activity at 2241.7 g/ha [3] | activity at 4483.4 g/ha [3] | Tolerance to soybeans [4] | activity at 2241.7 g/ha [5] | activity at 4483.4 g/ha [5] | Tolerance to wheat ([6]; preemergence applications) | activity at 2241.7 g/ha [7] | activity at 4483.4 g/ha [7] | activity at 2241.7 g/ha [8] | activity at 4483.4 g/ha [8] | Tolerance to rice [9, 16] | Tolerance to rice ([9]; preemergence applications) | Tolerance to cotton [11] | Tolerance to wheat ([6]; postemergence applications) | Tolerance to peanuts ([10]; postemergence applications) | Tolerance to corn ([2]; preemergence applications) | also measured |
| --- | --- | --- | --- | --- | --- | --- | --- | --- | --- | --- | --- | --- | --- | --- | --- | --- | --- | --- | --- |
| CCOC(=O)C(C)Oc1cc(Oc2ccc(C(F)(F)F)cc2Cl)ccc1[N+](=O)[O-] (stereo not drawn) [Example 26, 2-Chloro-α,α,α-trifluoro-p-tolyl-3-(1-carbethoxyethoxy)-4-nitrophenyl ether] | Tolerance (significant tolerance (as shown by 50% or less kill of the test crop at levels of application which give more than 50% kill of many or all of the weeds of Example 73)) | Tolerance (significant tolerance (as shown by 50% or less kill of the test crop at levels of application which give more than 50% kill of many or all of the weeds of Example 73)) | 93% | 99% | Tolerance (significant tolerance (as shown by 50% or less kill of the test crop at levels of application which give more than 50% kill of many or all of the weeds of Example 73)) | 99% | 100% | Tolerance (significant tolerance (as shown by 50% or less kill of the test crop at levels of application which give more than 50% kill of many or all of the weeds of Example 73)) | 100% | 100% | 75% | 98% | – | – | – | – | – | – | – |
| C#CC(C)Oc1cc(Oc2ccc(C(F)(F)F)cc2Cl)ccc1[N+](=O)[O-] (centres unmarked) [Example 30] | – | – | 91% | 75% | Tolerance (significant tolerance (as shown by 50% or less kill of the test crop at levels of application which give more than 50% kill of many or all of the weeds of Example 73)) | 94% | 99% | – | 100% | 100% | 78% | 81% | Tolerance (significant tolerance (as shown by 50% or less kill of the test crop at levels of application which give more than 50% kill of many or all of the weeds of Example 73)) | Tolerance (significant tolerance (as shown by 50% or less kill of the test crop at levels of application which give more than 50% kill of many or all of the weeds of Example 73)) | Tolerance (significant tolerance (as shown by 50% or less kill of the test crop at levels of application which give more than 50% kill of many or all of the weeds of Example 73)) | Tolerance (significant tolerance (as shown by 50% or less kill of the test crop at levels of application which give more than 50% kill of many or all of the weeds of Example 73)) | – | – | Tolerance to peanuts ([10]; preemergence applications): Tolerance (significant tolerance (as shown by 50% or less kill of the test crop at levels of application which give more than 50% kill of many or all of the weeds of Example 73)) |
| O=C([O-])c1cc(Oc2ccc(C(F)(F)F)cc2Cl)ccc1[N+](=O)[O-].[Na+] [Example 48A, Sodium 5-(2-Chloro-4-trifluoromethylphenoxy)-2-nitrobenzoate] | – | – | – | – | – | – | – | – | – | – | – | – | – | – | – | – | – | – | Herbicidal activity (% control), postemergence, monocots ([12]; 2 lb./A.): 86%; Herbicidal activity (% control), postemergence, monocots ([12]; 4 lb./A.): 92%; Herbicidal activity (% control), preemergence, dicots ([13]; 2 lb./A.): 84%; Herbicidal activity (% control), preemergence, dicots ([13]; 4 lb./A.): 98%; Herbicidal activity (% control), postemergence, dicots ([14]; 2 lb./A.): 98%; Herbicidal activity (% control), postemergence, dicots ([14]; 4 lb./A.): 100%; Herbicidal activity (% control), preemergence, monocots ([15]; 2 lb./A.): 89%; Herbicidal activity (% control), preemergence, monocots ([15]; 4 lb./A.): 99% |
| CC(C)Oc1cc(Oc2ccc(C(F)(F)F)cc2Cl)ccc1[N+](=O)[O-] [Example 4] | Tolerance (significant tolerance (as shown by 50% or less kill of the test crop at levels of application which give more than 50% kill of many or all of the weeds of Example 73)) | Tolerance (significant tolerance (as shown by 50% or less kill of the test crop at levels of application which give more than 50% kill of many or all of the weeds of Example 73)) | – | 80% | Tolerance (significant tolerance (as shown by 50% or less kill of the test crop at levels of application which give more than 50% kill of many or all of the weeds of Example 73)) | – | 100% | Tolerance (significant tolerance (as shown by 50% or less kill of the test crop at levels of application which give more than 50% kill of many or all of the weeds of Example 73)) | – | 100% | – | 98% | – | Tolerance (significant tolerance (as shown by 50% or less kill of the test crop at levels of application which give more than 50% kill of many or all of the weeds of Example 73)) | Tolerance (significant tolerance (as shown by 50% or less kill of the test crop at levels of application which give more than 50% kill of many or all of the weeds of Example 73)) | Tolerance (significant tolerance (as shown by 50% or less kill of the test crop at levels of application which give more than 50% kill of many or all of the weeds of Example 73)) | Tolerance (significant tolerance (as shown by 50% or less kill of the test crop at levels of application which give more than 50% kill of many or all of the weeds of Example 73)) | Tolerance (significant tolerance (as shown by 50% or less kill of the test crop at levels of application which give more than 50% kill of many or all of the weeds of Example 73)) | – |
| CCN(CCO)c1cc(Oc2ccc(C(F)(F)F)cc2Cl)ccc1[N+](=O)[O-] [Example 54] | – | Tolerance (significant tolerance (as shown by 50% or less kill of the test crop at levels of application which give more than 50% kill of many or all of the weeds of Example 73)) | 71% | 79% | Tolerance (significant tolerance (as shown by 50% or less kill of the test crop at levels of application which give more than 50% kill of many or all of the weeds of Example 73)) | – | 75% | Tolerance (significant tolerance (as shown by 50% or less kill of the test crop at levels of application which give more than 50% kill of many or all of the weeds of Example 73)) | 100% | 100% | 98% | 83% | Tolerance (significant tolerance (as shown by 50% or less kill of the test crop at levels of application which give more than 50% kill of many or all of the weeds of Example 73)) | Tolerance (significant tolerance (as shown by 50% or less kill of the test crop at levels of application which give more than 50% kill of many or all of the weeds of Example 73)) | – | Tolerance (significant tolerance (as shown by 50% or less kill of the test crop at levels of application which give more than 50% kill of many or all of the weeds of Example 73)) | Tolerance (significant tolerance (as shown by 50% or less kill of the test crop at levels of application which give more than 50% kill of many or all of the weeds of Example 73)) | Tolerance (significant tolerance (as shown by 50% or less kill of the test crop at levels of application which give more than 50% kill of many or all of the weeds of Example 73)) | – |
